Read-outs that look alike come from different tables or passages of the source.
How the values were obtained:
Type in all cases: cell-based
[1] = target: OR8/OR7 (Anopheles gambiae, UniProt Q7PUT5+Q7QCC7); test: Ca2+-imaging of stable HEK293T cell line OR8/OR7; conditions: for inhibition at 4 µM: HEK-293T, compound applied at 4 μM, read-out: Percent Inhibition OR8 OR7
In short: (§1)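 Cells were plated 2 days ahead, dye-loaded with Ca-4 for 1.5 hr at room temperature in the dark, and then received odorant solution containing test compound. Intracellular calcium increase was followed as 525 nm emission under 485 nm excitation.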

[2] = target: T1, serotonin receptor (5HT3) (Mus musculus, UniProt P23979); test: Ca2+-imaging of stable Flip-In T-Rex cell line 5HT3; conditions: for inhibition at 4 µM: compound applied at 4 μM, read-out: Percent Inhibition 5HT3; for IC50: Table B, read-out: IC50 5HT3
T1 construct: Full-length cDNAs for mosquito (Anopheles gambiae) odorant receptor; expressed in transfected cells
T1 sequence (P23979 24-489): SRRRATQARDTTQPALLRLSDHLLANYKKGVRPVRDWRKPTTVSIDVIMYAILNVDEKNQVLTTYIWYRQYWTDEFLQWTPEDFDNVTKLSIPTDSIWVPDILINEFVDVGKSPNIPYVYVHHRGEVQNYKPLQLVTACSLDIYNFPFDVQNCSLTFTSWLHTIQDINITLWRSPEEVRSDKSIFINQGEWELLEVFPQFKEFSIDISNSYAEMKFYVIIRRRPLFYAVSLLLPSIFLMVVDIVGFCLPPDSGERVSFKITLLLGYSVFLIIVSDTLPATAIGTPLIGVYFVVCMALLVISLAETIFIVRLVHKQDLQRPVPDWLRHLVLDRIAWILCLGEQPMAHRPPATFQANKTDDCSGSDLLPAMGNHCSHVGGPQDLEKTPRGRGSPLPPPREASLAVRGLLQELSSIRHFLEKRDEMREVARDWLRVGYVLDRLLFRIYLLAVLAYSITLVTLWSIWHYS
In short: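 Flp-In T-REx stable lines (Drosophila Or47a/Or83b or mouse 5HT3), 10,000 cells/well cultured 2 days, induced with tetracycline 1 day before assay.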

[3] = target: OR28/OR7 (Anopheles gambiae, UniProt A0A1S4GFY3+Q7QCC7); test: Ca2+-imaging of stable HEK293T cell line OR28/OR7; conditions: for inhibition at 4 µM: HEK-293T, read-out: Percent Inhibition OR28 OR7
Protocol: Full-length cDNAs for mosquito (Anopheles gambiae) odorant receptor (OR1, OR2, OR7, OR8, OR28), and fly (Drosophila melanogaster) odorant receptor (Or47a, Or83b), mouse TRP channel (TRPM8), and mouse serotonin receptor (5HT3) were obtained and subcloned into mammalian expression vectors. The following mammalian expression vectors were used:
Stable cell lines OR1/OR7, OR2/OR7, OR8/OR7, OR10/OR7, OR28/OR7 and TRPM8 were generated from HEK293T cells. HEK293T-based cell lines were cultured in DMEM supplemented with these additional antibiotics: 6 μg/mL blasticidin and 1 μg/mL puromycin, with the exception of the TRPM8 cell lines, which was cultured in DMEM supplemented with 1 μg/mL puromycin.
Cells were trypsinized and split into 35 mm dishes one day before transfection. Confluent cells (60-70%) in 35 mm dishes were transfected with 1 μg of insect OR(X) plasmids in pME18s-bla and 1 μg of OR7-pME18s-puro using lipofectamine 2000. For Anopheles odorant receptors, two plasmids were co-transfected into HEK cells: the ligand-specific receptor (OR1, OR2, OR8, OR28) and the corresponding olfactory co-receptor: OR7. Cell lines containing TRPM8 were transfected with single plasmid.
Stable cell lines were cultured in 10 cm dishes, and confluent cells (70-80%) were trypsinized. 10,000 cells/20 μL were transferred into each well of 384-well plates coated with poly-D-lysine, and cultured for 2 days. For Flip-In T-Rex cells (cell lines expressing Or47a/Or83b and 5HT3), 5 μL of tetracycline (5 μg/mL) were added 1 day before the assay. 20 μL of Ca-4 dye was loaded into each well for 1.5 hr at room temperature in the dark, and the dye-loaded plates were subjected to Ca^2+-imaging using a Hamamatsu FDSS6000 real time fluorescence plate reader. Odorant solutions (9× final concentration) were prepared by dissolving 1M stock solutions into Hank's Buffered Salt Solution (HBSS), and 30 μL of odor solution was transferred to each well in 384-well plates.
Compounds ([…] in DMSO) were stored in 384-well plates, and last two columns (32 wells total) contained only DMSO. 200 nL of small compounds were transferred into the odorant plates before the assay using the Perkin-Elmer Janus workstation. The odorant plates were spun down to remove air bubbles, and placed on the FDSS6000 plate loader, and 5 μL of odorant solution was applied to the cell plate on the FDSS6000. Ca^2+ increase was monitored with fluorescence at 525 nm by excitation at 485 nm.

[4] = target: T2, TRP channel (TRPM8) (Mus musculus, UniProt Q8R4D5); test: Ca2+-imaging of stable HEK293T cell line TRPM8; conditions: HEK-293T; compound applied at 4 μM; read-out: Percent Inhibition TRPM8
T2 construct: Full-length cDNAs for mosquito (Anopheles gambiae) odorant receptor (OR1, OR2, OR7, OR8, OR28), and fly (Drosophila melanogaster) odorant receptor (Or47a, Or83b), mouse TRP channel (TRPM8); expressed in transfected cells
In short: as §1

OR28/OR7, sequence (A0A1S4GFY3 entry or part of it): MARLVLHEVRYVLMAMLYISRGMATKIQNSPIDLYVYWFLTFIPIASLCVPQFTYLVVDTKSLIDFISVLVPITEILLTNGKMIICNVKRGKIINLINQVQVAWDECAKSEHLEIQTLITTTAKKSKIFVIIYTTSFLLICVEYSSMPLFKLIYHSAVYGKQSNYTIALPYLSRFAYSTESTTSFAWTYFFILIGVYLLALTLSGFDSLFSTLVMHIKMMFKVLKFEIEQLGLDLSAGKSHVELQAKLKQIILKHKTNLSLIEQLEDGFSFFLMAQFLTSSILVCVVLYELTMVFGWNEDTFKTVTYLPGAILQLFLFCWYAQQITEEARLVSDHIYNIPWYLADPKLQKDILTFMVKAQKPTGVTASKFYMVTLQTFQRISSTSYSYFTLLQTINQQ
OR28/OR7, sequence (Q7QCC7 whole entry): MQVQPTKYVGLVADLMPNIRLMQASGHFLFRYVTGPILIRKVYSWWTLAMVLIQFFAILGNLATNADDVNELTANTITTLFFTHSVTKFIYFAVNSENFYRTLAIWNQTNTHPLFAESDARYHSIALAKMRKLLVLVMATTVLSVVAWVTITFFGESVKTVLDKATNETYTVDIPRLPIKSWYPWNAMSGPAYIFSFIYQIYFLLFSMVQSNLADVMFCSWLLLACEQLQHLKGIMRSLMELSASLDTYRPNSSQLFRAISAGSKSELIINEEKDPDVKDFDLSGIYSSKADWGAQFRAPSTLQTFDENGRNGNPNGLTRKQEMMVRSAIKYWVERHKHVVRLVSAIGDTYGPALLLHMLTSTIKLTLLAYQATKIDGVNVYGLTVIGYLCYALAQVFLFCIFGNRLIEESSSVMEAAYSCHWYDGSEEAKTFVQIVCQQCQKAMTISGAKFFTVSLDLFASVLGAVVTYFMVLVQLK
T2 sequence (Q8R4D5 whole entry): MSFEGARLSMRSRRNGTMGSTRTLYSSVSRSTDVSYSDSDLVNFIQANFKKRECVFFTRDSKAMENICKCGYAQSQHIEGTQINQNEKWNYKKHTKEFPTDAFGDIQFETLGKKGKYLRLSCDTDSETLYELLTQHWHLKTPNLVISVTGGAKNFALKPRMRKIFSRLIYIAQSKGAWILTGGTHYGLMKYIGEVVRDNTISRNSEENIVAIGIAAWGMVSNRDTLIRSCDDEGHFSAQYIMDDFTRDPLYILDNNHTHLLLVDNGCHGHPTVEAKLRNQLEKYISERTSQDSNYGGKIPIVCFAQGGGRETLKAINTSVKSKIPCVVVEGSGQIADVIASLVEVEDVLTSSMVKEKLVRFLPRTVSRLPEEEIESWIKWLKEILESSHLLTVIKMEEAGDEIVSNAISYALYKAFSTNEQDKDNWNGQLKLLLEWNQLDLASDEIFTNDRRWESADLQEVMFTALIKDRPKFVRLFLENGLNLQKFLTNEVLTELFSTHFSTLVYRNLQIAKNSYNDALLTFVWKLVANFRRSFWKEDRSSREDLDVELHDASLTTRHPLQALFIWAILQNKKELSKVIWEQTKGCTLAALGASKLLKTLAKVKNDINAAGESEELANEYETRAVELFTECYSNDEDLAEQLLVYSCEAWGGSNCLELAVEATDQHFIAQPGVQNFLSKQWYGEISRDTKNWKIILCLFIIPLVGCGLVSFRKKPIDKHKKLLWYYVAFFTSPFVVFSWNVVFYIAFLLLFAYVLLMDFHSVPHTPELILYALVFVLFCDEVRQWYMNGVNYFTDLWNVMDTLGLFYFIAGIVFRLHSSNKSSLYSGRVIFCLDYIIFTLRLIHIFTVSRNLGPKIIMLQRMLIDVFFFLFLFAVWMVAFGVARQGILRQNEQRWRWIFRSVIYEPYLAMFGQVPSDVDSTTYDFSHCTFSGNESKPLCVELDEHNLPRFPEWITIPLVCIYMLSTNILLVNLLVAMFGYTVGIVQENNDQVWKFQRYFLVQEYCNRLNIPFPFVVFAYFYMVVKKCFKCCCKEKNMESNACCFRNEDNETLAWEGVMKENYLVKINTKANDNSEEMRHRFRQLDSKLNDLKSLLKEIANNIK
OR8/OR7, sequence (Q7QCC7 whole entry): as the sequence (Q7QCC7 whole entry) above
OR8/OR7, sequence (Q7PUT5 entry or part of it): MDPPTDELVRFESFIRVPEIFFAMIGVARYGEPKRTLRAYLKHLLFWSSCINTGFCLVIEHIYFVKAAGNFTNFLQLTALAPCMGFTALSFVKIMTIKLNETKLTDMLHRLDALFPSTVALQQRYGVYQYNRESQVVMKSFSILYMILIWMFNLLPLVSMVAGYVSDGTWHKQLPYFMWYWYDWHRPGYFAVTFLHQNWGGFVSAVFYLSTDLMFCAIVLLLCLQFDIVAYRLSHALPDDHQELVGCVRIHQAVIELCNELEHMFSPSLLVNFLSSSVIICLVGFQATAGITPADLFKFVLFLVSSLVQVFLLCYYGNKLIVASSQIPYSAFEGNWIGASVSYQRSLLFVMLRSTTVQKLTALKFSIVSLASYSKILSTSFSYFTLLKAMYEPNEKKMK

| SMILES | inhibition at 4 µM [1] [%] | inhibition at 4 µM [2] [%] | inhibition at 4 µM ([3]; compound applied at 4 μM) [%] | IC50 ([3]; Table B, read-out: IC50 OR28) [nM] | inhibition at 4 µM [4] [%] | IC50 ([1]; Table B, read-out: IC50 OR8) [nM] | IC50 [2] [nM] | IC50 [3] [nM] | inhibition at 4 µM [3] [%] |
| --- | --- | --- | --- | --- | --- | --- | --- | --- | --- |
| COc1ccc(-c2nnc(SCc3ccc(C#N)cc3)n2-c2ccc(C)cc2)cc1 [RU-0046426] | 26 to 50 | 26 to 50 | > 75 | > 1000 | < 25 | – | – | – | – |
| CCOc1ccccc1C(=O)NNC(=O)COc1cc(C)cc(C)c1 [RU-0023245] | – | 26 to 50 | > 75 | > 1000 | < 25 | – | – | – | – |
| CC(NC(=O)c1cc2n(n1)CCN(Cc1c(Cl)cccc1Cl)C2=O)c1ccccc1 (centres unmarked) [RU-0045115] | < 25 | < 25 | > 75 | < 100 | < 25 | – | – | – | – |
| COC(=O)C(Cc1ccccc1)NC(=O)C1CC1(c1ccccc1)c1ccccc1 (centres unmarked) [RU-0028029] | 51 to 74 | 26 to 50 | 51 to 74 | < 100 | 26 to 50 | > 1000 | – | – | – |
| COCCCN(CC(=O)N1CCc2sccc2C1c1ccc(OC)cc1)C(=O)C(C)(C)CCl (centres unmarked) [RU-0069950] | 26 to 50 | 51 to 74 | > 75 | < 100 | < 25 | – | > 1000 | – | – |
| Cc1cc(C)c2c(c1C(=O)N1CCC3(CC1)C(=O)NCN3c1ccccc1)CC(C)(C)C2=O [RU-0025771] | – | 26 to 50 | > 75 | – | 26 to 50 | – | – | – | – |
| Cc1ccc(CN(CCc2ccccc2)C(=O)CN(C(=O)NC(C)(C)C)C(C)C)o1 [RU-0072008] | < 25 | < 25 | > 75 | < 100 | < 25 | – | – | – | – |
| COc1ccccc1N1CCN(C(=O)c2cc3n(n2)CCN(Cc2c(F)cccc2Cl)C3=O)CC1 [RU-0043595] | 26 to 50 | 51 to 74 | > 75 | < 100 | < 25 | – | > 1000 | – | – |
| COCCNC(=O)c1ccc(CSc2nnc(-c3ccc(C)cc3)n2-c2ccccc2F)cc1 [RU-0051652] | < 25 | 26 to 50 | 51 to 74 | > 1000 | < 25 | – | – | – | – |
| COCCN(Cc1cc(Cl)ccc1OS(=O)(=O)c1ccc(F)cc1)C(=O)C1CCC1 [RU-0035287] | 26 to 50 | 26 to 50 | > 75 | < 100 | < 25 | – | – | – | – |
| COc1nc(NC(C)C)nc(NC(C)C)n1 [RU-0001534] | 26 to 50 | 26 to 50 | – | – | < 25 | – | – | < 100 | > 75 |
| O=C1CN(S(=O)(=O)c2c(F)cc(F)cc2F)CC2c3cccc(F)c3CCN12 (centres unmarked) [RU-0076832] | < 25 | 26 to 50 | > 75 | < 100 | < 25 | – | – | – | – |
| COc1ccc(N2CCN(C(=O)C3CC=CCC3C(=O)NC(c3ccccc3)c3ccccn3)CC2)cc1 (centres unmarked) [RU-0026507] | < 25 | 26 to 50 | > 75 | > 1000 | < 25 | – | – | – | – |

Reference: patent US20130324522A1, “INSECT ODORANT RECEPTOR ANTAGONISTS” (THE ROCKEFELLER UNIVERSITY, priority 2010, published 2013)
